Where a name gives a salt, the structure may show the parent alone. Read-outs that look alike come from different tables or passages of the source.

Data set [1] can be described thus: gastrointestinal tract simulation system, fasted state, Sporanox solution with or without water. It is filed as in vitro ADME. The method, then:
FIGS. 5A-7B are a series of graphs showing the results of an experiment, simulating fasted state conditions, in which tests are performed in an experimental setup as shown in FIG. 1. […] At the start of the first experimental run, 20 mL of Sporanox® solution (corresponding to a dose of 200 mg itraconazole) was added to the stomach (without water) (Vdose 1=20 mL) whereas at the start of the second run, 20 mL of Sporanox solution was added together with 240 mL of water to the first compartment (with water) (Vdose 2=260 mL). […] Itraconazole concentrations were determined through UHPLC chromatography coupled to UV detection. All experiments were performed in biological triplicate.

The conditions of data set [2]: cited from earlier work.
The conditions of data set [3]: cited from earlier work. This is another data set of the same source.

For `CCC(C)n1ncn(-c2ccc(N3CCN(c4ccc(OCC5COC(Cn6cncn6)(c6ccc(Cl)cc6Cl)O5)cc4)CC3)cc2)c1=O` (centres unmarked) [Itraconazole, itraconazole], the “area under the curve of the permeated compound” value in data set [1] (with versus without water, outer vessel (sink)) is given as “absence of a substantial difference”. Also, in data set [1] (without water, duodenum pH 6.5), the “behaviour of itraconazole in the duodenum” value was “precipitation of a fraction of the administered dose”. Also, in data set [2], the aqueous solubility entry is listed as “very low aqueous solubility”.

In the case of `CC(C)(C)NC(=O)[C@@H]1CN(Cc2cccnc2)CCN1C[C@@H](O)C[C@@H](Cc1ccccc1)C(=O)N[C@H]1c2ccccc2C[C@H]1O` [indinavir sulfate], the “AUC of solute concentration in the duodenum” value is, setting by setting: (fed state with carbohydrate solution compared to fasted state) “increased”; (fed state with elevated stomach pH) “decreased substantially”. The “decrease in indinavir bioavailability” value in data set [3] (high carbohydrate meal compared to fasted) is listed as 45%; in data set [3] (high fat meal compared to fasted), 34%; in data set [3] (high protein meal compared to fasted), 68%.

These data come from US20240044763A1, “GASTROINTESTINAL TRACT SIMULATION SYSTEM AND METHOD” (ProDigest, priority 2020, published 2024).
